Calls of active or inactive are those of the source. The rule behind the calls is not given here.

The values that follow come from ChEMBL document CHEMBL5338788, “Discovery of a New-Generation S-Adenosylmethionine-Noncompetitive Covalent Inhibitor Targeting the Lysine Methyltransferase Enhancer of Zeste Homologue 2” (J Med Chem, 2023).

Data set [1] has as its target Histone-lysine N-methyltransferase EZH2 (Homo sapiens, UniProt Q15910, Y641F). The experiment in a line: Inhibition of N-terminal FLAG-tagged recombinant full-length human EZH2 Y641F mutant in PRC2 complex expressed in baculovirus infected Sf9 cells using H3K27me0 biotin/SAM as substrate preincubated for 10 mins followed by substrate addition measured after 4 hrs by HTRF assay. The data set is classed as cell-based. A general note: In TR-FRET formats the signal depends on donor and acceptor labels being close together.

Data set [2] has as its system KARPAS-422. Put plainly: Antiproliferative activity against human KARPAS-422 cells expressing EZH2 Y641N mutant assessed as inhibition of cell proliferation incubated for 6 days by CCK8 assay. The format is functional, cell-based. Conditions: KARPAS-422, 144 h.
The test system of data set [3] is Pfeiffer. The experiment in a line: Antiproliferative activity against human Pfeiffer cells expressing EZH2 […] mutant assessed as inhibition of cell proliferation incubated for 6 days by CCK8 assay. The format is functional, cell-based. Conditions: 144 h. Background: Formazan colour is commonly taken as a measure of viable cells.
A short description of data set [4]: Metabolic stability in human liver microsomes assessed as half life preincubated for 10 mins followed by NADPH addition measured upto 60 mins by LC-MS/MS analysis. The data set is classed as ADME, Microsome. Conditions: time < 70 min. For orientation: Microsomes from liver hold many membrane-bound enzymes, among them those of drug oxidation.
Data set [5] can be described thus: Apparent permeability in human Caco-2 cells at 20 uM measured for 35 to 95 mins by LC-MS/MS analysis. The data set is classed as ADME, cell-based. Conditions: time 35-95 min.
Data set [6] concerns Pfeiffer. Put plainly: Downregulation of H3K27me3 level in human Pfeiffer cells at 1 uM incubated for 96 hrs followed by compound washout measured after 48 hrs by Western blot analysis. The format is functional, cell-based. Conditions: time 144.0 hrs.
Data set [7] can be described thus: Antiproliferative activity against human WILL-1 cells expressing wild-type EZH2 assessed as inhibition of cell proliferation incubated for 6 days by CCK8 assay. The data set is classed as functional, cell-based. Conditions: WILL-1, 144 h.
The test system of data set [8] is Pfeiffer. The experiment in a line: Antiproliferative activity against human Pfeiffer cells expressing EZH2 mutant assessed as inhibition of cell proliferation incubated for 6 days by CCK8 assay. Conditions: time 6.0 day. The data set is classed as functional, cell-based.
Data set [9] concerns KARPAS-422. The experiment in a line: Antiproliferative activity against human KARPAS-422 cells expressing EZH2 mutant assessed as inhibition of cell proliferation incubated for 6 days by CCK8 assay. The data set is classed as functional, cell-based. Conditions: time 6.0 day.
In data set [10] the test system is RL. Put plainly: Antiproliferative activity against human RL cells expressing EZH2 mutant assessed as inhibition of cell proliferation incubated for 6 days by CCK8 assay. The format is functional, cell-based.
Data set [11] deals with SU-DHL-2. The experiment in a line: Antiproliferative activity against human SUDHL2 cells expressing EZH2 mutant assessed as inhibition of cell proliferation incubated for 6 days by CCK8 assay. The data set is classed as functional, cell-based. Conditions: SU-DHL-2, 144 h.
In data set [12] the test system is SU-DHL10. Put plainly: Antiproliferative activity against human SU-DHL-10 cells expressing EZH2 mutant assessed as inhibition of cell proliferation incubated for 6 days by CCK8 assay. The data set is classed as functional, cell-based. Conditions: time 6.0 day.
The subject of data set [13] is Karpas-1106P. Put plainly: Antiproliferative activity against human KARPAS-1106P cells expressing wild-type EZH2 assessed as inhibition of cell proliferation incubated for 6 days by CCK8 assay. The format is functional, cell-based.
In data set [14] the test system is DB. The experiment in a line: Antiproliferative activity against human DB cells expressing wild-type EZH2 assessed as inhibition of cell proliferation incubated for 6 days by CCK8 assay. The data set is classed as functional, cell-based. Conditions: 144 h.
Data set [15] relates to WSUDLCL2. The experiment in a line: Antiproliferative activity against human WSUDLCL2 cells expressing wild-type EZH2 assessed as inhibition of cell proliferation incubated for 6 days by CCK8 assay. The format is functional, cell-based. Conditions: WSUDLCL2, 144 h.
Data set [16] relates to U2932. Put plainly: Antiproliferative activity against human U2932 cells expressing wild-type EZH2 assessed as inhibition of cell proliferation incubated for 6 days by CCK8 assay. The format is functional, cell-based. Conditions: U2932, 144 h.
For data set [17], the system named is HT. Put plainly: Antiproliferative activity against human HT cells expressing wild-type EZH2 assessed as inhibition of cell proliferation incubated for 6 days by CCK8 assay. The format is functional, cell-based. Conditions: 144 h.
Data set [18] deals with OPM-2. The experiment in a line: Antiproliferative activity against human OPM-2 cells expressing wild-type EZH2 assessed as inhibition of cell proliferation incubated for 6 days by CCK8 assay. The format is functional, cell-based. Conditions: OPM-2, 144 h.

Chain of Histone-lysine N-methyltransferase EZH2 (Q15910 whole entry Y641F): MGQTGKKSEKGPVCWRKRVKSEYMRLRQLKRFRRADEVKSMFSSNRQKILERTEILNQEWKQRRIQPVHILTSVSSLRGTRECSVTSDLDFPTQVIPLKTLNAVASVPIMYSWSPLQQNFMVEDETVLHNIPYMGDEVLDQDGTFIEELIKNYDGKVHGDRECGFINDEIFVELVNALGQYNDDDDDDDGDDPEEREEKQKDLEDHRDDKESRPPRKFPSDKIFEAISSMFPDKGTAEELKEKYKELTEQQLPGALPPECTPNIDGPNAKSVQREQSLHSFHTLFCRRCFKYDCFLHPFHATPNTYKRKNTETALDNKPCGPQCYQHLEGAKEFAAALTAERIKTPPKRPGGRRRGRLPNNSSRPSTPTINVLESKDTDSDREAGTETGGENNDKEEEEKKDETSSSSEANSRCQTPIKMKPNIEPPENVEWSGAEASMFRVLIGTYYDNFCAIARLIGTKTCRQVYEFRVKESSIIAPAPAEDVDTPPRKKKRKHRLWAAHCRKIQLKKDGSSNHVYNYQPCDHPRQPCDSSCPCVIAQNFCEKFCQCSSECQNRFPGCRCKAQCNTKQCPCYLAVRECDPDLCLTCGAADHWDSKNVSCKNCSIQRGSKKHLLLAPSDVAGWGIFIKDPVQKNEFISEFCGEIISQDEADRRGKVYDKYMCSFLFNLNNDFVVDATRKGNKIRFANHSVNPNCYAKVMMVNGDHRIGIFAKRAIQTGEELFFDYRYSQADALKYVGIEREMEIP

In the case of `CCC(=O)NCc1cc(C(=O)NCc2c(C)cc(C)[nH]c2=O)c(C)c(N(CC)C2CCOCC2)c1`, the IC50 (usually the concentration that gives 50% inhibition) in data set [1] is 137 nM; in [2], over 3000 nM; in data set [3] it was over 3000 nM.

`CCN(c1cc(NC(=O)/C=C/CN(C)C)cc(C(=O)NCc2c(C)cc(C)[nH]c2=O)c1C)C1CCOCC1`: the IC50 in data set [1] turned out to be 36 nM.

Regarding `C=C(C)C(=O)Nc1cc(C(=O)NCc2c(C)cc(C)[nH]c2=O)c(C)c(N(CC)C2CCOCC2)c1`, the concentration for half-maximal inhibition (IC50) in data set [1] is 38 nM.

Take `CCC(=O)Nc1cc(C(=O)NCc2c(C)cc(C)[nH]c2=O)c(C)c(N(CC)C2CCOCC2)c1`: the IC50 in data set [1] was 38 nM; in data set [2], over 3000 nM; in data set [3] it was 1950 nM.

On to `C=CC(=O)Nc1cc(C(=O)NCc2c(C)cc(C)[nH]c2=O)c(C)c(N(CC)C2CCOCC2)c1`, for which the IC50 in data set [1] was 10 nM; in [2], over 3000 nM; in data set [3], 974 nM. Moreover, the half-life – broadly, the time in which the quantity being followed falls by half – in data set [4] was found to be 9.4 min. Moreover, the Papp (as a rule, the rate of passage across a membrane or cell layer, normalised by area and donor concentration) at 20 µM in [5] was 0.045 ×10⁻⁶ cm/s.

Take `C=CC(=O)N(C)c1cc(C(=O)NCc2c(C)cc(C)[nH]c2=O)c(C)c(N(CC)C2CCOCC2)c1`: the 50% inhibitory concentration (IC50) in data set [1] turned out to be 35 nM; in data set [2], 587 nM; in data set [3], 195 nM. Also, in data set [4], the half-life turned out to be 12.7 min. The Papp at 20 µM in [5] stood at 0.054 ×10⁻⁶ cm/s.

With `CCC(=O)N(C)c1cc(C(=O)NCc2c(C)cc(C)[nH]c2=O)c(C)c(N(CC)C2CCOCC2)c1`, the values for the half-inhibitory concentration (IC50) in data set [1], in data set [2] and in data set [3] were 50 nM, over 3000 nM and 2530 nM, respectively.

As for `CCN(c1cc(NC(=O)/C=C/CN2CCOCC2)cc(C(=O)NCc2c(C)cc(C)[nH]c2=O)c1C)C1CCOCC1`, in [1], the 50% inhibitory concentration (IC50) came out at 21 nM.

As for `C=CS(=O)(=O)Nc1cc(C(=O)NCc2c(C)cc(C)[nH]c2=O)c(C)c(N(CC)C2CCOCC2)c1`, in data set [1], the 50% inhibitory concentration (IC50) was 173 nM.

On to `CC#CC(=O)Nc1cc(C(=O)NCc2c(C)cc(C)[nH]c2=O)c(C)c(N(CC)C2CCOCC2)c1`, for which the IC50 in [1] amounted to 11 nM.

In the case of `CC[C@H](C)n1cc(C)c2c(C(=O)NCc3c(C)cc(C)[nH]c3=O)cc(-c3ccc(N4CCNCC4)nc3)cc21`, the outcome in [6] was inactive.

As to `CCC(=O)NCc1cc(C(=O)NCc2c(SC)cc(C)[nH]c2=O)c(C)c(N(CC)C2CCOCC2)c1`, the IC50 is 134 nM in [1]; 708 nM in data set [2]; 147 nM in [3]; over 3000 nM in [7]; over 3000 nM in data set [10] (144 h); over 3000 nM in data set [11]. Moreover, the half-maximal inhibitory concentration (IC50) in data set [13] (144 h), in [14], in data set [15], in data set [16], in [17] and in data set [18] was over 3000 nM each time. In [6], the outcome was inactive. Moreover, the inhibition result in [8], in data set [9] and in [12] was “Active” throughout.

`C=CC(=O)NCc1cc(C(=O)NCc2c(OC)cc(C)[nH]c2=O)c(C)c(N(CC)C2CCOCC2)c1`: the IC50 was 9 nM in data set [1], 1440 nM in data set [2] and 314 nM in [3]. Besides, in data set [4], the half-life is 35.3 min.

Take `C/C=C/C(=O)Nc1cc(C(=O)NCc2c(C)cc(C)[nH]c2=O)c(C)c(N(CC)C2CCOCC2)c1`: in data set [1], the IC50 was determined as 21 nM.

For the compound `C=CC(=O)NCc1cc(C(=O)NCc2c(CCC)cc(C)[nH]c2=O)c(C)c(N(CC)C2CCOCC2)c1`, the half-inhibitory concentration (IC50) in data set [1] is 4 nM; in data set [2] it was over 3000 nM; in data set [3], 1350 nM.

As for `C=CC(=O)NCc1cc(C(=O)NCc2c(C)cc(C)[nH]c2=O)c(C)c(N(CC)C2CCOCC2)c1`, the IC50 came out at 39 nM in data set [1], 542 nM in data set [2] and 194 nM in data set [3]. The half-life in [4] was 24 min.

As to `CCN(c1cc(-c2ccc(CN3CCOCC3)cc2)cc(C(=O)NCc2c(C)cc(C)[nH]c2=O)c1C)C1CCOCC1` [TAZEMETOSTAT], the IC50 in data set [2] is 294 nM; in data set [3], 34 nM; in data set [7] it was over 3000 nM; in [11] it was over 3000 nM; in data set [14], over 3000 nM; in [15], over 3000 nM. The IC50 in data set [16], in data set [17] and in [18] was over 3000 nM each time. For the same compound, the half-life in [4] was found to be 20.2 min. Besides, the apparent permeability coefficient (Papp) at 20 µM in data set [5] was found to be 1.06 ×10⁻⁶ cm/s. For the same compound, the result in data set [6] was inactive. Also, the inhibition result in [8], in data set [9], in data set [10] (time 6.0 day), in data set [12] and in [13] (time 6.0 day) was “Active” in each case.
